In publication PMC5673977, “Transport Deficiency Is the Molecular Basis of Candida albicans Resistance to Antifungal Oligopeptides” (Frontiers in Microbiology, 2017):
Where a SMILES comes first, the peptide text is derived from it.

Legend:
Test in all cases: Initial peptide uptake rate
Type in all cases: cell-based, Candida albicans
C. albicans SC5314 = details: SC 5314; cells grown in YNB-SG; 50 mM potassium phosphate buffer (pH 5.0 or 6.5) + 1% glucose, 30°C, 100 μM peptide, residual peptide by TNBS A420, slope 0- to 10-min
Experimental: (§1) Yeast cells grown exponentially in the YNB-SG medium were harvested by centrifugation (3000 ×g, 5 min), washed with 50 mM potassium phosphate buffer (pH 5.0 or 6.5), and suspended in the same buffer containing 1% glucose, to a final cell density corresponding to A660 ≅ 1.0. The cell suspension was incubated at 30°C. After 10 min, an oligopeptide solution was added, to give a final concentration of 100 μM. At that moment and at 5 min intervals thereafter, 2 mL samples of the cell suspension were withdrawn, immediately filtered through the Whatman GF/A filters and the filtrates were used to determine the residual peptide concentration. Then, the 1 mL portions of the filtrates were taken and combined with 1.25 mL aliquots of a solution containing 4% Na2B4O7 × 10 H2O and 0.8 mg mL^-1 of 2,4,6-trinitrobenzenesulfonate. The reaction was carried out at 37°C for 30 min. The A420 values were measured and the peptide concentration was read from the appropriate standard curve. Data were plotted as nanomoles of an oligopeptide, taken up by 1 mg (dry weight) of cells versus time. The initial uptake velocities were determined from the slopes of the linear part of the curves, in the 0- to 10-min region.

C. albicans opt5Δ = details: 50 mM potassium phosphate buffer (pH 5.0 or 6.5) + 1% glucose, 30°C, 100 μM peptide, TNBS A420, slope 0- to 10-min
Experimental: as §1

[1] = tested on: C. albicans opt1–opt5Δ ptr2Δ ptr22Δ; details: 50 mM potassium phosphate buffer (pH 5.0 or 6.5) + 1% glucose, 30°C, 100 μM peptide, TNBS A420, slope 0- to 10-min
Experimental: as §1

C. albicans opt4Δ = details: 50 mM potassium phosphate buffer (pH 5.0 or 6.5) + 1% glucose, 30°C, 100 μM peptide, TNBS A420, slope 0- to 10-min
Experimental: as §1

C. albicans opt1–opt5Δ = details: 50 mM potassium phosphate buffer (pH 5.0 or 6.5) + 1% glucose, 30°C, 100 μM peptide, TNBS A420, slope 0- to 10-min
Experimental: as §1

C. albicans opt2Δ opt3Δ = details: 50 mM potassium phosphate buffer (pH 5.0 or 6.5) + 1% glucose, 30°C, 100 μM peptide, TNBS A420, slope 0- to 10-min
Experimental: as §1

C. albicans opt1Δ = details: 50 mM potassium phosphate buffer (pH 5.0 or 6.5) + 1% glucose, 30°C, 100 μM peptide, TNBS A420, slope 0- to 10-min
Experimental: as §1

C. albicans ptr2Δ ptr22Δ = details: 50 mM potassium phosphate buffer (pH 5.0 or 6.5) + 1% glucose, 30°C, 100 μM peptide, TNBS A420, slope 0- to 10-min
Experimental: as §1

In the case of CSCC[C@H](NC(=O)[C@@H](NC(=O)[C@@H]1CCCN1C(=O)[C@H](CC(C)C)NC(=O)[C@@H](N)CCCCN)C(C)C)C(=O)O [Peptide P5, Lys-Leu-Pro-Val-Met, reference compound] (H-KLPVM-OH), the “Uptake rate ± SD” value (C. albicans SC5314) was 2.66 ± 0.19 nmol min^-1 (mg dry weight)^-1, the “Uptake rate ± SD” value (C. albicans opt5Δ) was 1.82 ± 0.11 nmol min^-1 (mg dry weight)^-1 and the “Uptake rate ± SD” value [1] was 0.15 ± 0.04 nmol min^-1 (mg dry weight)^-1. The “Uptake rate ± SD” value (C. albicans opt4Δ) was 1.95 ± 0.13 nmol min^-1 (mg dry weight)^-1, the “Uptake rate ± SD” value (C. albicans opt1–opt5Δ) was 0.39 ± 0.07 nmol min^-1 (mg dry weight)^-1 and the “Uptake rate ± SD” value (C. albicans opt2Δ opt3Δ) was 0.52 ± 0.08 nmol min^-1 (mg dry weight)^-1. For the same compound, the “Uptake rate ± SD” value (C. albicans opt1Δ) was 2.01 ± 0.16 nmol min^-1 (mg dry weight)^-1 and the “Uptake rate ± SD” value (C. albicans ptr2Δ ptr22Δ) was 2.56 ± 0.18 nmol min^-1 (mg dry weight)^-1.

With N=C(N)NCCC[C@H](N)C(=O)N[C@@H](CCCCN)C(=O)N[C@@H](CCCCN)C(=O)N[C@@H](Cc1c[nH]c2ccccc12)C(=O)N[C@@H](Cc1ccccc1)C(=O)N[C@@H](Cc1c[nH]c2ccccc12)C(=O)O [Peptide P6, Arg-Lys-Lys-Trp-Phe-Trp, reference compound] (H-RKKWFW-OH) the “Uptake rate ± SD” value (C. albicans SC5314) was 2.22 ± 0.11 nmol min^-1 (mg dry weight)^-1, the “Uptake rate ± SD” value (C. albicans opt5Δ) was 1.99 ± 0.10 nmol min^-1 (mg dry weight)^-1 and the “Uptake rate ± SD” value [1] was 0.12 ± 0.03 nmol min^-1 (mg dry weight)^-1. For the same compound, the “Uptake rate ± SD” value (C. albicans opt4Δ) was 2.11 ± 0.16 nmol min^-1 (mg dry weight)^-1, the “Uptake rate ± SD” value (C. albicans opt1–opt5Δ) was 0.22 ± 0.07 nmol min^-1 (mg dry weight)^-1 and the “Uptake rate ± SD” value (C. albicans opt2Δ opt3Δ) was 0.40 ± 0.09 nmol min^-1 (mg dry weight)^-1. The “Uptake rate ± SD” value (C. albicans opt1Δ) was 1.85 ± 0.15 nmol min^-1 (mg dry weight)^-1 and the “Uptake rate ± SD” value (C. albicans ptr2Δ ptr22Δ) was 2.46 ± 0.19 nmol min^-1 (mg dry weight)^-1.
